Marks after values point to notes of the source that are not given here.
Tested on: patients with hyposmia
Assay: Smell function (DT, RT, ME, H) by forced-choice, three-stimuli, stepwise-staircase technique with four odors; open trial of oral theophylline
Type: in vivo, human
Source text: Patients initially reported their sensory dysfunction as either loss of taste (e.g., flavor) and/or smell function. This subjective response was documented by objective psychophysical measurements of olfactory function administered to each patient by use of a forced-choice, three-stimuli, stepwise-staircase technique in a fixed, controlled design (1, 53). Efficacy of this technique and results of testing were previously documented in a double-blind clinical trial (53). Four odors were used; they were pyridine (dead-fish odor), nitrobenzene (bitter-almond odor), thiophene (petroleum-like odor) and amyl acetate (banana-oil odor). Detection thresholds (DT), recognition thresholds (RT) and magnitude estimation (ME) values for each odor were determined as previously described (1, 53). Thresholds were converted into bottle units (BU) as previously described (53) and results reported as M±SEM of correct responses for each odor in each treatment group; ME was reported in % and results calculated to obtain M±SEM for each treatment group for all correct responses using data for the four highest odor concentrations presented (from 10^−2M—an absolute odor concentration).
In addition, each patient graded the hedonic (H) value of each odor presented for these same odor concentrations (from 10^−2M—an absolute odor concentration using a −100−0−+100 scale). […] Results were obtained by calculating the arithmetical sum of each correct recognition response for each odor with respect to its pleasantness, unpleasantness or neutrality. Arithmetic M±SEM were obtained for each treatment group for each odor presented.
After determination of hyposmia, patients were treated in an open label, fixed design, controlled open trial. Patients were given an oral extended release theophylline in divided daily doses taken in the middle of breakfast and lunch. All patients were initially given 200 mg of theophylline; changes in this dose were made based upon subjective responses to therapy. If at a subsequent return visit, patients reported ≥5% subjective improvement in overall smell function, they continued on this same dose of theophylline and were reevaluated after four to six months of continued treatment. Results from any subsequent return from these improved patients were not included in any subsequent data report. All subsequent comparisons between treated and untreated patients were made only between those patients continuing in the study compared to their own measurements obtained in the untreated state. If patients reported <5% subjective improvement, their theophylline dose was increased by 200 mg daily and they were scheduled for retesting at the study site after two to four months at this new dosage. For patients that reported <5% improvement, this sequence continued until patients reached 800 mg of theophylline, at which time the study was considered completed.
Patients returned for reevaluation after two to four months of treatment. Measurements of blood serum theophylline were measured by a fluorescence polarization assay (Abbott, Chicago, Ill.). At this time, subjective changes in smell function were measured independently (compared to patient's memory of previous normal smell function monitored by use of the patients' daily measurements) using the scale from −100−0-+100 previously described. After independently recording their subjective responses, smell function was measured for all four odors with DT, RT, ME and H determined without recourse to prior measurements.
Since data for all measurements from each patient group (local or distant) on each dose level were combined mean and SEM for each measurement (DT, RT, ME, H) of smell function for each treatment group were calculated on this basis. Differences in measurements between before treatment and each treatment level were calculated and significance of differences estimated using Student t tests (values p<0.05 considered significant). […]

[1] = pyridine, oral theophylline 800 mg, Type II hyposmia (16)
[2] = thiophene, oral theophylline 200 mg
[3] = thiophene, oral theophylline 200 mg daily, all patients (199)
[4] = thiophene, oral theophylline 200 mg, Type I hyposmia (57)
[5] = thiophene, oral theophylline 200 mg, Type II hyposmia (138)
[6] = thiophene, oral theophylline 200 mg, Type III hyposmia (4)
[7] = thiophene, oral theophylline 400 mg
[8] = thiophene, oral theophylline 400 mg daily, all patients (120)
[9] = thiophene, oral theophylline 400 mg, Type I hyposmia (33)
[10] = thiophene, oral theophylline 400 mg, Type II hyposmia (85)
[11] = thiophene, oral theophylline 400 mg, Type III hyposmia (2)
[12] = thiophene, oral theophylline 600 mg daily, all patients (160)
[13] = thiophene, oral theophylline 600 mg, Type I hyposmia (51)
[14] = thiophene, oral theophylline 600 mg, Type II hyposmia (105)
[15] = thiophene, oral theophylline 600 mg, Type III hyposmia (4)
[16] = thiophene, oral theophylline 800 mg daily, all patients (28)
[17] = thiophene, oral theophylline 800 mg, Type I hyposmia (12)
[18] = thiophene, oral theophylline 800 mg, Type II hyposmia (16)

Cn1c(=O)c2[nH]cnc2n(C)c1=O [theophylline]
H, hedonic value [1]: −31 ± 9^ % | ME, magnitude estimation [1]: 43 ± 5^c % | RT, recognition threshold [1]: 7.1 ± 0.7^a BU | decrease of H values [2]: 2% | increase of ME values [2]: 5% | DT, detection threshold [3]: 7.5 ± 0.2^c BU | H, hedonic estimation [3]: −15 ± 2^d % | ME, magnitude estimation [3]: 21 ± 2 ^ % | RT, recognition threshold [3]: 9.1 ± 0.2^c BU | DT, detection threshold [4]: 10.1 ± 0.3^d BU | H, hedonic value [4]: −3 ± 2^a % | ME, magnitude estimation [4]: 6 ± 2^a % | RT, recognition threshold [4]: 11.4 ± 0.2^ BU | DT, detection threshold [5]: 6.5 ± 0.3^ BU | H, hedonic value [5]: −19 ± 2^ % | ME, magnitude estimation [5]: 27 ± 2^ % | RT, recognition threshold [5]: 8.2 ± 0.3^a BU | DT, detection threshold [6]: 3.2 ± 0.8 BU | H, hedonic value [6]: −40 ± 18% | ME, magnitude estimation [6]: 47 ± 15% | RT, recognition threshold [6]: 3.8 ± 0.6 BU | ME increases [7]: 12% | increases in H values [7]: 7% | DT, detection threshold [8]: 6.8 ± 0.4^c BU | H, hedonic estimation [8]: −19 ± 2^d % | ME, magnitude estimation [8]: 26 ± 2^c % | RT, recognition threshold [8]: 8.4 ± 0.3^a BU | DT, detection threshold [9]: 9.8 ± 0.5^a BU | H, hedonic value [9]: −5 ± 2^a % | ME, magnitude estimation [9]: 7 ± 2^a % | RT, recognition threshold [9]: 10.8 ± 0.4^ BU | DT, detection threshold [10]: 5.7 ± 0.4^ BU | H, hedonic value [10]: −23 ± 3^ % | ME, magnitude estimation [10]: 31 ± 3^ % | RT, recognition threshold [10]: 7.6 ± 0.4^a BU | DT, detection threshold [11]: 1 BU | H, hedonic value [11]: −99% | ME, magnitude estimation [11]: 99% | RT, recognition threshold [11]: 1 BU | DT, detection threshold [12]: 7.1 ± 0.3^a BU | H, hedonic estimation [12]: −14 ± 2 ^ % | ME, magnitude estimation [12]: 21 ± 2^d % | RT, recognition threshold [12]: 9.0 ± 0.3^c BU | DT, detection threshold [13]: 9.4 ± 0.4^a BU | H, hedonic value [13]: −3 ± 2^a % | ME, magnitude estimation [13]: 7 ± 2^a % | RT, recognition threshold [13]: 10.9 ± 0.3^d BU | DT, detection threshold [14]: 6.1 ± 0.3^a BU | H, hedonic value [14]: −20 ± 2^ % | ME, magnitude estimation [14]: 27 ± 2^ % | RT, recognition threshold [14]: 8.1 ± 0.3^a BU | DT, detection threshold [15]: 2.0 ± 1.0 BU | H, hedonic value [15]: −35 ± 24% | ME, magnitude estimation [15]: 42 ± 20% | RT, recognition threshold [15]: 3.8 ± 0.9 BU | DT, detection threshold [16]: 7.2 ± 0.7 BU | H, hedonic estimation [16]: −15 ± 4% | ME, magnitude estimation [16]: 20 ± 4% | RT, recognition threshold [16]: 9.6 ± 0.6 BU | DT, detection threshold [17]: 10.0 ± 0.7^ BU | H, hedonic value [17]: −4 ± 2^a % | ME, magnitude estimation [17]: 4 ± 2^a % | RT, recognition threshold [17]: 11.6 ± 0.2^ BU | DT, detection threshold [18]: 4.9 ± 0.7^a BU | H, hedonic value [18]: −24 ± 8^ % | ME, magnitude estimation [18]: 33 ± 6^ % | RT, recognition threshold [18]: 8.0 ± 1.0^ BU
